Each compound was assayed against T1, P2X7 receptor (Homo sapiens, UniProt Q99572) (assay: P2X7 calcium mobilization assay, high throughput, antagonist activity (Example 4A)). Settings: 50% decrease in the fluorescence response of cells exposed to 80 μM 2′(3′)-O-(4-benzoyl-benzoyl)adenosine 5′-triphosphate; Example 4A; read-out: IC50.
T1 construct: host or cells: SH-SY5Y
T1 sequence (Q99572 1-595): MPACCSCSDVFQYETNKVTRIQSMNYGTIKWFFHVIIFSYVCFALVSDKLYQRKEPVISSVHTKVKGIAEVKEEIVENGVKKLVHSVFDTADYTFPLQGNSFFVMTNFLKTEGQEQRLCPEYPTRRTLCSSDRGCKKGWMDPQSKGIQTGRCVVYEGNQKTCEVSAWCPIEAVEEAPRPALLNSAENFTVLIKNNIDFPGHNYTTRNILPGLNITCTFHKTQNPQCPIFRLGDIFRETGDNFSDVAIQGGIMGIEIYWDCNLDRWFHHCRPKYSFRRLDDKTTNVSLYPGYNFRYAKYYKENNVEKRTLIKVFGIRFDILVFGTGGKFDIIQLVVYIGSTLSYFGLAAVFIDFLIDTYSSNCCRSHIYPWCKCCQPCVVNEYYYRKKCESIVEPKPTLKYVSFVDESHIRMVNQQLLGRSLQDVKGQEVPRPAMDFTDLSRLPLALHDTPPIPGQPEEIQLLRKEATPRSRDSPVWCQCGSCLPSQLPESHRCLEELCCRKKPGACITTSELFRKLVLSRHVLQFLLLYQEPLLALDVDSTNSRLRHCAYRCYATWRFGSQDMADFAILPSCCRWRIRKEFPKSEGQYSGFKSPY
Type: cell-based
Outline: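 Antagonism was measured as calcium mobilization on FLIPR^TETRA after a 1 h room-temperature compound preincubation of dye-loaded cells. Baseline from no-agonist wells was subtracted from each well's maximum RFU.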

Structure (SMILES) | IC50 [nM]
O=C(NCC12CC3CC(CC(C3)C1)C2)c1cccc2nc(CN3CCS(=O)(=O)CC3)cn12 [Compound 537, N-(adamantan-1-ylmethyl)-2-[(1,1-dioxidothiomorpholin-4-yl)methyl]imidazo[1,2-a]pyridine-5-carboxamide] | < 2000
CC(C)[C@H]1CNCCN1C(=O)c1cn2c(C(=O)NCC34CC5CC(CC(C5)C3)C4)cccc2n1 [Compound 612, N-(adamantan-1-ylmethyl)-2-{[(2S)-2-isopropylpiperazin-1-yl]carbonyl}imidazo[1,2-a]pyridine-5-carboxamide] | < 2000
CC1(C)C2CC[C@H](CNC(=O)c3cccc4nc(CC(=O)N5CC[C@@H](N)C5)cn34)C1C2 (relative stereo) [Compound 549, rel-2-{2-[(3R)-3-aminopyrrolidin-1-yl]-2-oxoethyl}-N-{[(2S)-6,6-dimethylbicyclo[3.1.1]hept-2-yl]methyl}imidazo[1,2-a]pyridine-5-carboxamide] | < 2000

Same assay, conditions: 50% decrease in the fluorescence response of cells exposed to 80 μM of 2′(3′)-O-(4-benzoyl-benzoyl)adenosine 5′-triphosphate; Example 4A; read-out: IC50

Structure (SMILES) | IC50 [nM]
CCOC(=O)C(CC(=O)N(CC)CC)c1cn2c(C(=O)NCC34CC5CC(CC(C5)C3)C4)cccc2n1 (stereo not shown) [Compound 810, ethyl 2-{5-[(adamantan-1-ylmethyl)carbamoyl]imidazo[1,2-a]pyridin-2-yl}-4-(diethylamino)-4-oxobutanoate] | < 2000
CC1(C)C2CC[C@H](CNC(=O)c3cccc4nc(CC(=O)N5CCSCC5)cn34)C1C2 (stereo partly drawn) [Compound 795, N-{[(2S)-6,6-dimethylbicyclo[3.1.1]hept-2-yl]methyl}-2-(2-oxo-2-thiomorpholin-4-ylethyl)imidazo[1,2-a] pyridine-5-carboxamide] | < 2000
CC(C)(C)OC(=O)C(C#N)Cc1cn2c(C(=O)NCC34CC5CC(CC(C5)C3)C4)cccc2n1 (stereo not shown) [Compound 806, tert-butyl 3-{5-[(adamantan-1-ylmethyl)carbamoyl]imidazo[1,2-a]pyridin-2-yl}-2-cyanopropanoate] | < 2000
Cc1ccc(C(CNC(=O)c2cccc3nc(CN4CC[C@@H](NC(=O)OC(C)(C)C)C4)cn23)CC(C)C)cc1 (stereo partly shown) [Compound 765, tert-butyl {1-[(5-{[4-methyl-2-(4-methylphenyl)pentyl]carbamoyl}imidazo [1,2-a]pyridin-2-yl)methyl]pyrrolidin-3-yl}carbamate] | < 2000
O=C(NCC12CC3CC(CC(C3)C1)C2)c1cccc2nc(Cn3cnnn3)cn12 [Compound 727, N-(adamantan-1-ylmethyl)-2-(1H-tetrazol-1-ylmethyl) imidazo[1,2-a]pyridine-5-carboxamide] | < 2000
CN(C(=O)Cc1cn2c(C(=O)NCC34CC5CC(CC(C5)C3)C4)cccc2n1)C1CCOCC1 [Compound 767, N-(adamantan-1-ylmethyl)-2-{2-[methyl(tetrahydro-2H-pyran-4-yl)amino]-2-oxoethyl} imidazo[1,2-a] pyridine-5-carboxamide] | < 2000
CNC1CCN(C(=O)CCc2cn3c(C(=O)NCC45CC6CC(CC(C6)C4)C5)cccc3n2)C1 (stereo not shown) [Compound 779, N-(adamantan-1-ylmethyl)-2-{3-[3-(methylamino)pyrrolidin-1-yl]-3-oxopropyl} imidazo[1,2-a] pyridine-5-carboxamide] | < 2000
CC1(C)C2CC[C@H](CNC(=O)c3cccc4nc(CC(=O)O)cn34)C1C2 (stereo in doubt) [Compound 682, (5-{[(6,6-dimethylbicyclo[3.1.1]hept-2-yl)methyl]carbamoyl}imidazo[1,2-a]pyridin-2-yl)acetic acid] | < 2000
CC(C)CC(CNC(=O)c1cccc2nc(CN3CC[C@@H](NC(=O)OC(C)(C)C)C3)cn12)c1ccc(C(F)(F)F)cc1 (stereo partly shown) [Compound 764, tert-butyl (1-{[5-({4-methyl-2-[4-(trifluoromethyl)phenyl]pentyl}carbamoyl)imidazo [1,2-a]pyridin-2-yl]methyl}pyrrolidin-3-yl)carbamate] | < 2000
CCN(CCN(C)C)C(=O)c1cn2c(C(=O)NCC34CC5CC(CC(C5)C3)C4)cccc2n1 [Compound 672, 5-N-(adamantan-1-ylmethyl)-2-N-[2-(dimethylamino)ethyl]-2-N-ethylimidazo[1,2-a]pyridine-2,5-dicarboxamide] | < 2000
N[C@@H]1CCN(Cc2cn3c(C(=O)NCC(CC4CCCCC4)c4ccccc4)cccc3n2)C1 (stereo partly shown) [Compound 787, 2-[(3-aminopyrrolidin-1-yl)methyl]-N-(3-cyclohexyl-2-phenylpropyl) imidazo[1,2-a] pyridine-5-carboxamide] | < 2000

Same assay, conditions: 50% decrease in the fluorescence response of cells exposed to 80 μM of 2′(3′)-O-(4-benzoyl-benzoyl)adenosine 5′-triphosphate; determined as in Example 4A; read-out: IC50

Structure (SMILES) | IC50 [nM]
CC(C)CC(CNC(=O)c1cccc2nc(CN3CC[C@@H](N)C3)cn12)c1cccnc1 (stereo partly drawn) [Compound 823, 2-{[(3R)-3-aminopyrrolidin-1-yl]methyl}-N-(4-methyl-2-pyridin-3-ylpentyl)imidazo[1,2-a]pyridine-5-carboxamide] | < 2000
O=C(O)Cc1cn2c(C(=O)NCC3(c4ccc(Cl)cc4)CCCCC3)cccc2n1 [Compound 949, [5-({[1-(4-chlorophenyl)cyclohexyl]methyl}carbamoyl)imidazo[1,2-a]pyridin-2-yl]acetic acid] | < 2000
O=C(NCC12CC3CC(CC(C3)C1)C2)c1cccc2nc(C3(C(=O)O)CCOCC3)cn12 [Compound 945, 4-{5-[(adamantan-1-ylmethyl)carbamoyl]imidazo[1,2-a]pyridin-2-yl}tetrahydro-2H-pyran-4-carboxylic acid] | < 2000
CC(C)CC(CNC(=O)c1cccc2nc(CC(=O)O)cn12)c1ccc(C(F)(F)F)cc1 (stereo not shown) [Compound 965, [5-({4-methyl-2-[4-(trifluoromethyl)phenyl]pentyl}carbamoyl)imidazo[1,2-a]pyridin-2-yl] acetic acid] | < 2000
CC(C)CC(CNC(=O)c1cccc2nc(Cn3nccc3N)cn12)c1ccc(Cl)cc1 (stereo not shown) [Compound 836, 2-[(5-amino-1H-pyrazol-1-yl)methyl]-N-[2-(4-chlorophenyl)-4-methylpentyl] imidazo [1,2-a]pyridine-5-carboxamide] | < 2000

Same assay, conditions: P2X7 calcium mobilization, Example 4A; 50% decrease in the fluorescence response of cells exposed to 80 μM of (2′(3′)-O-(4-benzoyl-benzoyl)adenosine 5′-triphosephate); read-out: IC50

Structure (SMILES) | IC50 [nM]
CC(C)CC(CNC(=O)c1cccc2nc(CCN3CCCC3)cn12)c1ccc(Cl)cc1 (stereo not shown) [Compound 1041, N-[2-(4-chlorophenyl)-4-methylpentyl]-2-(2-pyrrolidin-1-ylethyl) imidazo[1,2-a]pyridine-5-carboxamide] | < 2000
O=C(NCC12CC3CC(CC(C3)C1)C2)c1ccn2cc(CCl)nc2c1 [Compound 1064, N-(adamantan-1-ylmethyl)-2-(chloromethyl)imidazo [1,2-a]pyridine-7-carboxamide] | < 2000

Same assay, conditions: SH-SY5Y cells; 50% decrease in fluorescence response to 80 μM BzATP; read-out: IC50

Structure (SMILES) | IC50 [nM]
CCOC(=O)Cc1cn2c(C(=O)NCC3CCCCC3)cccc2n1 [Compound 141, ethyl {5-[(cyclohexylmethyl)car-bamoyl]imidazo[1,2-a]pyridin-2-yl}acetate] | < 2000
O=C(Cc1cn2c(C(=O)NCC34CC5CC(CC(C5)C3)C4)cccc2n1)NN1CCOCC1 [Compound 162, N-(adamantan-1-ylmethyl)-2-[2-(morpholin-4-ylamino)-2-oxoethyl]imidazo[1,2-a]pyridine-5-carboxamide] | < 2000
O=C1CN(C(=O)c2cn3c(C(=O)NCC45CC6CC(CC(C6)C4)C5)cccc3n2)CCN1 [Compound 99, N-(adamantan-1-ylmethyl)-2-[(3-oxopiperazin-1-yl)carbonyl]imidazo[1,2-a]pyridine-5-carboxamide] | < 2000

Same assay, conditions: fluorescence response of cells exposed to 80 μM 2′(3′)-O-(4-benzoyl-benzoyl)adenosine 5′-triphosphate; Example 4A; read-out: IC50

Structure (SMILES) | IC50 [nM]
N[C@@H]1CCCN(C(=O)Cc2cn3c(C(=O)NCC45CC6CC(CC(C6)C4)C5)cccc3n2)C1 [Compound 295, N-(adamantan-1-ylmethyl)-2-{2-[(3R)-3-aminopiperidin-1-yl]-2-oxoethyl}imidazo[1,2-a]pyridine-5-carboxamide] | < 2000
CC1(C)[C@H]2CC[C@@H](CNC(=O)c3cccc4nc(C(=O)N5C[C@H]6CC5CN6)cn34)[C@@H]1C2 (stereo in doubt) [Compound 302, 2-[(1R,4R)-2,5-diazabicyclo[2.2.1]hept-2-ylcarbonyl]-N-{[(1S,2R,5S)-6,6-dimethylbicyclo[3.1.1]hept-2-yl]methyl}imidazo[1,2-a]pyridine-5-carboxamide] | < 2000
CC(C)CC(CNC(=O)c1cccc2nc(CC(=O)NC(C)C(N)=O)cn12)c1ccccc1 (stereo not shown) [Compound 235, 2-{2-[(2-amino-1-methyl-2-oxoethyl)amino]-2-oxoethyl}-N-(4-methyl-2-phenylpentyl)imidazo [1,2-a]pyridine-5-carboxamide] | < 2000
CN(C)CCN(C(=O)c1cn2c(C(=O)NC[C@@H]3CC[C@H]4C[C@@H]3C4(C)C)cccc2n1)C1CCNCC1(C)C (stereo partly drawn) [Compound 319, 2-N-[2-(dimethylamino)ethyl]-5-N-{[(1S,2R,5S)-6,6-dimethylbicyclo[3.1.1]hept-2-yl]methyl}-2-N-(3,3-dimethylpiperidin-4-yl)imidazo[1,2-a]pyridine-2,5-dicarboxamide] | < 2000

From US8431593B2, “Heteroaryl amide derivatives” (H. Lundbeck A/S, priority 2006, dated 2013)
